From patent publication US8575168B2, “Compounds and compositions as modulators of GPR119 activity” (IRM LLC, priority 2009, dated 2013)

Target: T1, human GPR119 (Homo sapiens, UniProt Q8TDV5)
T1 construct: expressed in transfected cells
T1 sequence (Q8TDV5 1-335): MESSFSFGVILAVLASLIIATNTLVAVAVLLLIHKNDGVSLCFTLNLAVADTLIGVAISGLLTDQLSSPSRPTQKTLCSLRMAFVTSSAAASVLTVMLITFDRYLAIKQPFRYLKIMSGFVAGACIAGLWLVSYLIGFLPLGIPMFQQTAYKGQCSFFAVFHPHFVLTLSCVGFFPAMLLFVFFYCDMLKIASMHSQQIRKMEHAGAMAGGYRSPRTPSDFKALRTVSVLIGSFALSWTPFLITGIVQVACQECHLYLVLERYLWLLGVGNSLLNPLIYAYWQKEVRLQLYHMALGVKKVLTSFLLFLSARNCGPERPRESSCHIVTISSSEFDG
Assay: Cyclic AMP Assay in Stable Cell Line (HTRF)
Assay type: cell-based
Details: Flp-In-CHO-hGPR119 cells, intracellular cAMP, 30 minutes at 37° C., 1 mM IBMX
Experimental: Flp-In-CHO cells (Invitrogen, Cat. #R758-07) are maintained in Ham's F12 medium supplemented with 10% fetal bovine serum, 1% antibiotic mixture and 2 mM L-glutamine. The cells are transfected with a DNA mixture containing human GPR119 in pcDNA5/FRT vector and the pOG44 vector (1:9) using Fugene6 (Roche), according to the manufacturer's instruction. After 48 hours, the medium is changed to medium supplemented with 400 μg/ml hygromycin B to initiate the selection of stably transfected cells.
To test the activity of compounds of the invention, Flp-In-CHO-hGPR119 cells are harvested and resuspended in DMEM plus 3% lipid-depleted fetal bovine serum. Forth μl of cells are plated in 384 well plates at a density of 15,000 cells/well. IBMX (3-isobutyl-1-methyl-xanthine) is added to the cells to a final concentration of 1 mM, followed by the addition of 500 nl of the compound to be tested. The cells are incubated at 37° C. for 30 minutes. Equal volume (20 μl) of the HTRF reagents, anti-cAMP-Cryptate and cAMP-XL665, are added to the cells. The plates are incubated at room temperature for 1 hour and read on a HTRF reader according to the manufacturer's instruction.

`CC(C)c1ccc(CN2CC(Oc3ccc(N4CCN(S(C)(=O)=O)CC4)nc3)C2)cc1` [Example A1, 1-(5-(1-(4-isopropylbenzyl)azetidin-3-yloxy)pyridin-2-yl)-4-(methylsulfonyl)piperazine] gave an EC50 of 118 nM.
In the case of `CC(C)c1nc(CN2CC(Oc3c(F)cc(C4CCN(S(C)(=O)=O)CC4)cc3F)C2)no1` [Example B11], the EC50 is reported as 397 nM.
For `CS(=O)(=O)N1CCN(c2ccc(OC3CN(Cc4ccc(C(F)(F)F)cc4)C3)cn2)CC1` [Example A9], the EC50 was 38 nM.
For `O=S(=O)(C1CCOCC1)N1CCC(c2cc(F)c(OC3CN(Cc4ccc(C(F)(F)F)cc4)C3)c(F)c2)CC1` [Example A36], the EC50 was 28 nM.
With `Cn1nc(C(F)(F)F)cc1CN1CCC(Oc2c(F)cc(C3CCN(S(C)(=O)=O)CC3)cc2F)CC1` [Example B14] the EC50 was 70 nM.
With `CS(=O)(=O)N1CCC(c2cc(F)c(OC3CCN(Cc4csc(C(F)(F)F)n4)CC3)c(F)c2)CC1` [Example B18] the EC50 was 52 nM.
In the case of `Cc1ccc(CN2CC(Oc3ccc(N4CCN(S(C)(=O)=O)CC4)nc3)C2)cc1` [Example A14], the EC50 is reported as 238 nM.
In the case of `CC(C)(F)c1noc(CN2CCC(Oc3c(F)cc(C4CCN(S(C)(=O)=O)CC4)cc3F)CC2)n1` [Example B2, 5-((4-(2,6-difluoro-4-(1-(methylsulfonyl)piperidin-4-yl)phenoxy)piperidin-1-yl)methyl)-3-(2-fluoropropan-2-yl)-1,2,4-oxadiazole], the EC50 is reported as 28 nM.
In the case of `CC(C)c1ccc(CN2CC(Oc3ccc(N4CCN(C(=O)OCc5ccccc5)CC4=O)nc3)C2)cc1` [Example A2, Benzyl 4-(5-(1-(4-isopropylbenzyl)azetidin-3-yloxy)pyridin-2-yl)-3-oxopiperazine-1-carboxylate], the EC50 is reported as 979 nM.
Work on `CS(=O)(=O)N1CCC(c2cc(F)c(OC3CCN(Cc4ccc(C(F)(F)F)nc4)CC3)c(F)c2)CC1` [Example A44] yielded an EC50 of 38 nM.
`CC(F)(F)c1noc(CN2CC(Oc3c(F)cc(C4CCN(S(C)(=O)=O)CC4)cc3F)C2)n1` [Example B13] showed an EC50 of 108 nM.
For `CS(=O)(=O)N1CCC(c2cc(F)c(OC3CN(Cc4ncc(C(F)(F)F)cn4)C3)c(F)c2)CC1` [Example A27], the EC50 was 764 nM.
Compound `CC(C)c1ccc(CN2CC(Oc3cnc(N4CCN(C(=O)OCc5ccccc5)CC4)cn3)C2)cc1` [Example A10] has an EC50 of 666 nM.
For `CS(=O)(=O)N1CCN(c2ccc(OC3CN(Cc4ccc(OC(F)(F)F)cc4)C3)cn2)CC1` [Example A8], the EC50 was 70 nM.
`CS(=O)(=O)N1CCC(c2ccc(OC3CCN(Cc4nc(C(F)(F)F)no4)CC3)c(F)c2F)CC1` [Example B27] was tested, and the EC50 was 11 nM.
`CS(=O)(=O)N1CCC(c2cc(F)c(OC3CN(C(CO)c4ccc(C(F)(F)F)cc4)C3)c(F)c2)CC1` (centres unmarked) [Example A29] was tested, and the EC50 was 1090 nM.
Compound `CS(=O)(=O)N1CCN(c2ccc(OC3CN(Cc4ccc(Cl)cc4)C3)cn2)CC1` [Example A15] has an EC50 of 134 nM.
`Cn1nc(C(F)(F)F)nc1CN1CC(Oc2c(F)cc(C3CCN(S(C)(=O)=O)CC3)cc2F)C1` [Example B21] showed an EC50 of 244 nM.
`CS(=O)(=O)N1CCC(c2ccc(OC3CCN(Cc4nc(C(F)(F)F)no4)CC3)c(F)c2)CC1` [Example B6] showed an EC50 of 37 nM.
Compound `CC(c1nc(C(F)(F)F)no1)N1CCC(Oc2c(F)cc(C3CCN(S(C)(=O)=O)CC3)cc2F)CC1` (centres unmarked) [Example B30] has an EC50 of 78 nM.
With `CC(C)(C)OC(=O)N1CCC(S(=O)(=O)N2CCC(c3cc(F)c(OC4CN(Cc5ccc(C(F)(F)F)cc5)C4)c(F)c3)CC2)C1` (centres unmarked) [Example A39] the EC50 was 214 nM.
With `O=S(=O)(C1CCNCC1)N1CCC(c2cc(F)c(OC3CN(Cc4ccc(C(F)(F)F)cc4)C3)c(F)c2)CC1` [Example A38] the EC50 was 458 nM.
With `CS(=O)(=O)N1CCN(c2cnc(OC3CN(Cc4ccc(C(F)(F)F)cc4)C3)cn2)C(=O)C1` [Example A3] the EC50 was 20 nM.
